Structures can show the parent of a compound that is named as a salt.

The text below walks through data of patent US12552753B2, “Methods and compositions for targeting Tregs using CCR8 inhibitors” (Nanjing Immunophage Biomedical Co., Ltd., priority 2020, dated 2026).

The target in the test is CCR8 (Homo sapiens, UniProt P51685). The test can be described thus: Tango assay (Tango-CCR8-Gal4-CHO-K1 cells, CCL1-stimulated, ONE-Glo luminescence). As to conditions: Tango Assay IC50, Inhibition of CCR8 Tango cell in vitro.
Chain of CCR8 (P51685 whole entry, the tested form may be a part): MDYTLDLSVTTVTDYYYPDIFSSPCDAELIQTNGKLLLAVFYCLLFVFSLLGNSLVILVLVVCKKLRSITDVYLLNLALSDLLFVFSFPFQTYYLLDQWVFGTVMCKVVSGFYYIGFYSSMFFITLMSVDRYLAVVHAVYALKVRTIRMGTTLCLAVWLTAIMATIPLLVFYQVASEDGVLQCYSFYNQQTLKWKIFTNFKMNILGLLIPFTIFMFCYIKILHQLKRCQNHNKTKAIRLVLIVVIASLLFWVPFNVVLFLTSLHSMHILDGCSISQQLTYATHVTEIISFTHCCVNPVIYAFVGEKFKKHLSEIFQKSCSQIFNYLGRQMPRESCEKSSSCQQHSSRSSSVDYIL
Regarding `Cc1ccccc1C(=O)Nc1ccc(S(=O)(=O)N[C@H](C)C2CCNCC2)cc1C(N)=O` [Compound 194, (R)-N-(2-carbamoyl-4-(N-(1-(piperidin-4-yl)ethyl)sulfamoyl)phenyl)-2-methylbenzamide], the IC50 was above 10000 nM.

As to `COc1cc(S(=O)(=O)NC(C)C2CC3CCC2CC3)c(OC)cc1NC(=O)c1ccccc1C` (centres unmarked) [Compound 183, N-(4-(N-(1-(bicyclo[2.2.2]octan-2-yl)ethyl)sulfamoyl)-2,5-dimethoxyphenyl)-2-methylbenzamide], the IC50 is above 10000 nM.

In turn, `Cc1ccccc1C(=O)Nc1ccc(S(=O)(=O)NC(C)C2CCCN(C(=O)[C@H](C)N)C2)c2ccccc12` (single isomer, unassigned) [Compound 158A] came in with an IC50 of 1500 nM. This lies in the single-digit micromolar range.

For `CCCN1CCCN(c2cc(NS(=O)(=O)c3ccc(NC(=O)c4ccccc4C)c4ccccc34)ccc2OC)CC1` [Compound 4, N-(4-(N-(4-methoxy-3-(4-propyl-1,4-diazepan-1-yl)phenyl)sulfamoyl)naphthalen-1-yl)-2-methylbenzamide], it took 1170 nM to reach half-maximal inhibition (IC50).

Regarding `Cc1ccccc1C(=O)Nc1ccc(S(=O)(=O)N[C@H](C)C2CCN(C)CC2)c(F)c1Cl` [Compound 264, (R)-N-(2-chloro-3-fluoro-4-(N-(1-(1-methylpiperidin-4-yl)ethyl)sulfamoyl)phenyl)-2-methylbenzamide], the IC50 is 11 nM.

Take `Cc1ccccc1C(=O)Nc1ccc(S(=O)(=O)N[C@H](C)C2CCNCC2)c(C(F)(F)F)c1` [Compound 189A, (R)-2-methyl-N-(4-(N-(1-(piperidin-4-yl)ethyl)sulfamoyl)-3-(trifluoromethyl)phenyl) benzamide hydrochloride]: the 50% inhibitory concentration (IC50) was above 10000 nM.

`Cc1cc(S(=O)(=O)N[C@H](C)C2CCN(CCO)CC2)ccc1NC(=O)c1ccccc1C` [Compound 205, (R)-N-(4-(N-(1-(1-(2-hydroxyethyl)piperidin-4-yl)ethyl)sulfamoyl)-2-methylphenyl)-2-methylbenzamide] had an IC50 of 41 nM.

With `Cc1ccccc1C(=O)Nc1ccc(S(=O)(=O)N[C@H](C)C2CCN(C(=O)OC(C)(C)C)CC2)cc1Cl` [Compound 164, (R)-tert-butyl 4-(1-(3-chloro-4-(2-methylbenzamido)phen-ylsulfonamido)ethyl)piper-idine-1-carboxylate], the IC50 is above 10000 nM.

Molecule `Cc1ccccc1C(=O)Nc1ccc(S(=O)(=O)NC2CCC(C(=O)N(C)C)CC2)c2ccccc12` (centres unmarked) [Compound 45, N-(4-(N-(4-(dimethylcarbamoyl)cy-clohexyl)sulfamoyl)naph-thalen-1-yl)-2-methylbenzamide] returned an IC50 of 2700 nM.

In turn, `Cc1cc(S(=O)(=O)N[C@H](C)C2CCN(C)CC2)ccc1NC(=O)c1cccc2c1CCC2` [Compound 296, (R)-N-(2-methyl-4-(N-(1-(1-methylpiperidin-4-yl)ethyl)sulfamoyl)phenyl)-2,3-dihydro-1H-indene-4-carboxamide] gave an IC50 of 2 nM.

On to `Cc1cc(S(=O)(=O)N[C@H](C)C2CCNCC2)ccc1NC(=O)c1ccccc1C` [Compound 161A, (R)-2-methyl-N-(2-methyl-4-(N-(1-(piperidin-4-yl)ethyl)sulfamoyl)phen-yl)benzamide hydrochloride], for which the IC50 is 42 nM. This IC50 is about 21-fold higher than that of the molecule before.

`CC(NS(=O)(=O)c1ccc2c(c1)C(=O)NCC2)C1CC2CCC1CC2` (centres unmarked) [Compound 134, N-(1-(bicyclo[2.2.2]octan-2-yl)ethyl)-1-oxo-1,2,3,4-tetrahydroisoquinoline-7-sulfonamide] returned an IC50 above 10000 nM.

`Cc1ccccc1C(=O)Nc1ccc(S(=O)(=O)NC(C)C2CCCN(C(=O)[C@H](C)N)C2)c2ccccc12` (single isomer, unassigned) [Compound 158B] returned an IC50 of 685 nM. This lies in the sub-micromolar range.

Regarding `CC(NS(=O)(=O)c1cccc(N2CCCC2C(=O)O)c1)C1CCCCC1` (centres unmarked) [Compound 152, 1-(3-(N-(1-cyclohexylethyl)sulfam-oyl)phenyl)pyrrolidine-2-carboxylic acid], the IC50 was above 10000 nM.

Take `Cc1ccccc1C(=O)Nc1c(Cl)cc(S(=O)(=O)N[C@H](C)C2CCNCC2)cc1Cl` [Compound 305, (R)-N-(2,6-dichloro-4-(N-(1-(piperidin-4-yl)ethyl)sulfamoyl)phenyl)-2-methylbenzamide hydrochloride]: the IC50 was 1.5 nM.

`Cc1ccccc1C(=O)Nc1ccc(S(=O)(=O)NC(CO)C2CCCCC2)c2ccccc12` (centres unmarked) [Compound 48, N-(4-(N-(1-cyclohexyl-2-hydroxyethyl)sulfamoyl)naphthalen-1-yl)-2-methylbenzamide] showed a 50% inhibitory concentration (IC50) of 170 nM.

Turning to `Cc1ccccc1C(=O)Nc1c(C)cc(S(=O)(=O)N[C@H](C)C2CCNCC2)cc1F` [Compound 302, (R)-N-(2-fluoro-6-methyl-4-(N-(1-(piperidin-4-yl)eth-yl)sulfamoyl)phen-yl)-2-methylbenzamide hydrochloride], the half-maximal inhibitory concentration (IC50) is above 100000 nM.

Molecule `Cc1ccccc1C(=O)Nc1ccc(S(=O)(=O)NC2CCc3n[nH]cc3C2)c2ccccc12` (centres unmarked) [Compound 52, 2-methyl-N-(4-(N-(4,5,6,7-tetrahydro-2H-indazol-5-yl)sulfamoyl)naphthalen-1-yl)benzamide] showed an IC50 above 10000 nM.

`CCc1cc(S(=O)(=O)N[C@H](C)C2CCNCC2)ccc1NC(=O)c1ccccc1C` [Compound 196, (R)-N-(2-ethyl-4-(N-(1-(piperidin-4-yl)ethyl)sulfamoyl)phenyl)-2-methylbenzamide] yielded a concentration for half-maximal inhibition (IC50) of 18 nM.

Take `Cc1ccccc1C(=O)Nc1ccc(S(=O)(=O)NC(C)C2CCCCN2C(=O)OC(C)(C)C)c2ccccc12` (single isomer, unassigned) [Compound 68, tert-butyl 2-(1-(4-(2-methylbenzamido)naph-thalene-1-sulfonamido)ethyl)piper-dine-1-carboxylate]: the IC50 came out at 1760 nM.

Consider `Cc1ccccc1C(=O)Nc1ccc(S(=O)(=O)Nc2ccc3c(c2)C(N(C)C(=O)CN(C)C)CC3)c2ccccc12` (centres unmarked) [Compound 98, N-(4-(N-(3-(2-(dimethylamino)-N-methylacetamido)-2,3-dihydro-1H-inden-5-yl)sulfamoyl)naphthalen-1-yl)-2-methylbenzamide], for which the concentration for half-maximal inhibition (IC50) was above 10000 nM.

The molecule `Cc1ccccc1C(=O)Nc1ccc(S(=O)(=O)NC2CCC23CCNCC3)c2ccccc12` (centres unmarked) [Compound 90, N-(4-(N-(7-azaspiro[3.5]nonan-1-yl)sulfamoyl)naphthalen-1-yl)-2-methylbenzamide] had an IC50 above 10000 nM.

For `Cc1cc(S(=O)(=O)N[C@H](C)C2CCN(C)CC2)ccc1NC(=O)c1c(C)cccc1F` [Compound 270, (R)-2-fluoro-6-methyl-N-(2-methyl-4-(N-(1-(1-methylpiperidin-4-yl)ethyl)sulfamoyl)phenyl) benzamide], half-maximal inhibition (IC50) was put at 50 nM.

The molecule `Cc1cc(S(=O)(=O)N[C@H](C)C2CCN(C)CC2)ccc1NC(=O)c1cc(Cl)ccc1C` [Compound 272, (R)-5-chloro-2-methyl-N-(2-methyl-4-(N-(1-(1-methylpiperidin-4-yl)ethyl)sulfamoyl)phenyl) benzamide] returned a half-maximal inhibitory concentration (IC50) of 1 nM.

In the case of `Cc1ccccc1C(=O)Nc1ccc(S(=O)(=O)NC(C)C(=O)N2CCC(C)CC2)c2ccccc12` (centres unmarked) [Compound 83, 2-methyl-N-(4-(N-(1-(4-methylpiperidin-1-yl)-1-oxopropan-2-yl)sulfamoyl)naphthalen-1-yl)benzamide], the IC50 was above 10000 nM.

Turning to `Cc1ccccc1C(=O)Nc1ccc(S(=O)(=O)N[C@H](C)C2CCNCC2)c(C)c1Cl` [Compound 245A, (R)-N-(2-chloro-3-methyl-4-(N-(1-(piperidin-4-yl)ethyl)sulfamoyl)phen-yl)-2-methylbenzamide hydrochloride], the IC50 is above 100000 nM.

As for `Cc1ccccc1C(=O)Nc1ccc(S(=O)(=O)Nc2ccc3c(c2)N(CCN(C)C)C(=O)CO3)c2ccccc12` [Compound 20, N-(4-(N-(4-(2-(dimethylamino)ethyl)-3-oxo-3,4-dihydro-2H-benzo[b][1,4]oxazin-6-yl)sulfamoyl)naphthalen-1-yl)-2-methylbenzamide], the IC50 was above 10000 nM.

In turn, `Cc1cc(S(=O)(=O)N[C@H](C)C2CCNCC2)ccc1NC(=O)C12CCC(CC1)CC2` [Compound 309, hydrochloride] gave a concentration for half-maximal inhibition (IC50) of 10 nM.

As to `Cc1ccccc1C(=O)Nc1ccc(S(=O)(=O)N[C@H](C)C2CCCCC2)c2ccccc12` [Compound 59, (R)-N-(4-(N-(1-cyclohexylethyl)sulfamo-yl)naphthalen-1-yl)-2-methylbenzamide], the midpoint of inhibition, the IC50, lay at 1.6 nM.

As for `CC(NS(=O)(=O)c1cccc(N2CCC(C(=O)O)C2)c1)C1CCCCC1` (centres unmarked) [Compound 154, 1-(3-(N-(1-cyclohexylethyl)sulfam-oyl)phenyl)pyrrolidine-3-carboxylic acid], the IC50 was above 10000 nM.

With `Cc1ccccc1C(=O)Nc1ccc(S(=O)(=O)NC(C)C23CCC(CC2)CC3)c2ccccc12` (centres unmarked) [Compound 132, N-(4-(N-(1-(bicyclo[2.2.2]octan-1-yl)ethyl)sulfamoyl)naphthalen-1-yl)-2-methylbenzamide], the IC50 is 3.2 nM.

On to `Cc1cc(S(=O)(=O)NC(CO)C2CCNCC2)ccc1NC(=O)c1ccccc1C` (centres unmarked) [Compound 234, N-(4-(N-(2-hydroxy-1-(piperidin-4-yl)ethyl)sulfamoyl)-2-methylphenyl)-2-methylbenzamide], for which half-maximal inhibition (IC50) required 1400 nM.

Regarding `Cc1cc(S(=O)(=O)NC(C)C(C)(C)CO)ccc1NC(=O)c1ccccc1C` (centres unmarked) [Compound 233, 3-((4-(N-(4-hydroxy-3,3-dimethylbutan-2-yl)sulfamoyl)-2-methylphenyl)carbamoyl)-2-methylbenzene-1-ylium], the IC50 was 886 nM. Against the preceding molecule, the IC50 is about 1.6-fold lower.

Turning to `Cc1ccccc1C(=O)Nc1ccc(S(=N)(=O)NC(C)C2CCCCC2)c2ccccc12` (centres unmarked) [Compound 123, N-(4-(N-(1-cyclohexylethyl)sulfamimidoyl)naphthalen-1-yl)-2-methylbenzamide], the IC50 amounted to 3.4 nM.

`Cc1cc(S(=O)(=O)NC(C)C(C)(C)CN(C)C)ccc1NC(=O)c1ccccc1C` (centres unmarked) [Compound 294, N-(4-(N-(4-(dimethylamino)-3,3-dimethylbutan-2-yl)sulfamoyl)-2-methylphenyl)-2-methylbenzamide hydrochlroide, hydrochloride] displayed an IC50 above 100000 nM.
